Patent US12616806B2, “Nasal administration” (OptiNose Inc., priority 2013, dated 2026)

Assays:
[1] = tested on: episodic migraine; conditions: continuous carbon dioxide infusion; cited from earlier work
[2] = cited from earlier work
[3] = tested on: chronic rhinosinusitis (CRS) with nasal polyps; test: Example #12: placebo controlled study in chronic rhinosinusitis with nasal polyps; type: in vivo, human; conditions: after 12 weeks

O=C=O [carbon dioxide]
two-hour pain free response [1]: 25.0% | dips in mucosal pH ([2]; 5 L/min carbon dioxide in concentrations of 15% and 45%): 0.1-0.2 pH units | decrease of extracellular nasal mucosal pH ([2]; 5 L/min, 3 s duration, 20% carbon dioxide, basal ~7.4): 0.05-0.1 pH units

C[C@@H]1C[C@H]2[C@@H]3C[C@H](F)C4=CC(=O)C=C[C@]4(C)[C@@]3(F)[C@@H](O)C[C@]2(C)[C@@]1(O)C(=O)SCF [fluticasone]
change in summed polyp score [3]: −0.98
